Experimental findings from patent US20240279278A1, “NMU RECEPTOR 2 AGONISTS” (Boehringer Ingelheim International GmbH, priority 2023, published 2024) are described below.

The target in one data set is T1, human NMUR1 receptor (Homo sapiens, UniProt Q9HB89).
T1 construct: expressed in transfected cells; host or cells: CHO-K1
T1 sequence (Q9HB89 1-426): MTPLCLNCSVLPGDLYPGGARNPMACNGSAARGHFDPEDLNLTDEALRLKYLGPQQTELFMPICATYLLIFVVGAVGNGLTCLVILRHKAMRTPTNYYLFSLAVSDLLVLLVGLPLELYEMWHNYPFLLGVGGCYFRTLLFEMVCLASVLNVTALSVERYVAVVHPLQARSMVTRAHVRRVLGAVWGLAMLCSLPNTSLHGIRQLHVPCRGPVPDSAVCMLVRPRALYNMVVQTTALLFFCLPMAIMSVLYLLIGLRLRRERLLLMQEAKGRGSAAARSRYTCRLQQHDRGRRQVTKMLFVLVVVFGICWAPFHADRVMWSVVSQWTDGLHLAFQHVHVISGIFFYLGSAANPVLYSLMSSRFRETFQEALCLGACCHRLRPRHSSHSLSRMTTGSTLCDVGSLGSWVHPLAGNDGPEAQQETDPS
Briefly: IP1 Gq HTRF assay, activation of human NMUR1 in buffer. The format is cell-based. The note with it: CHO-K1 cells expressing human NMUR1, stimulation buffer with 0.1% BSA; read-out: EC50 (hNMUR1) buffer. The procedure, abridged:
(§1)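 IP-One HTRF competition (665/620 nm ratio) read after 1 h agonist exposure at 37 °C in pH 7.4 HEPES/HBSS stimulation buffer containing 50 mM LiCl, 0.1% BSA, 1% DMSO. Cells: CHO-K1 stably expressing human NMUR2 or NMUR1. EC50 by 4-parameter nonlinear regression of 8-point curves.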
(In TR-FRET formats the signal depends on donor and acceptor labels being close together.)

The nature of another data set: physchem. The format is physicochemical. Put shortly:
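Peptide TFA salts were shaken at a nominal 10 mg/mL in 0.1 M phosphate buffer, pH 6 to 8, for 2 h at room temperature and then filtered. Reversed-phase HPLC peak area was compared with a 1 mg/mL control in buffer or DMSO to give solubility. The pH of each sample was recorded.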

Data set [1] concerns the target T2, human NMUR2 receptor (Homo sapiens, UniProt Q9GZQ4). Description: IP1 Gq HTRF assay, activation of human NMUR2 in buffer. Format: cell-based. On the set-up: expressed in transfected cells; host or cells: CHO-K1. The note with it: for EC50: CHO-K1 cells expressing human NMUR2, stimulation buffer with 0.1% BSA, read-out: EC50 (hNMUR2) buffer; for EC50 (hNMUR1)/EC50 (hNMUR2): selectivity for NMUR2 over NMUR1 from IP1 assay in buffer (Example 3). The procedure, abridged: as §1

The target in data set [2] is T2, human NMUR2 receptor. Briefly: IP1 Gq HTRF assay, activation of human NMUR2 in human plasma. On the set-up: expressed in transfected cells; host or cells: CHO-K1. Format: cell-based. The settings on record: CHO-K1 cells expressing human NMUR2, 100% human plasma; read-out: EC50 (hNMUR2) human plasma. Put shortly: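 EC50 obtained via 4-parameter sigmoidal regression of HTRF IP-One signal (665 nm/620 nm), which falls as intracellular IP1 rises. Stimulation: 1 h, 37° C, peptides in human plasma plus 50 mM LiCl, 1% DMSO final, on NMUR2-expressing CHO-K1 cells, 8 concentrations.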

Converted amounts (≈) assume the structure as drawn. Residues, ends and D or L forms follow the SMILES beside them.

For orientation: EC50 means the concentration needed to bring the measured effect to its halfway point. As a reminder, the solubility is how much of the substance goes into solution per volume.

T2 sequence (Q9GZQ4 whole entry): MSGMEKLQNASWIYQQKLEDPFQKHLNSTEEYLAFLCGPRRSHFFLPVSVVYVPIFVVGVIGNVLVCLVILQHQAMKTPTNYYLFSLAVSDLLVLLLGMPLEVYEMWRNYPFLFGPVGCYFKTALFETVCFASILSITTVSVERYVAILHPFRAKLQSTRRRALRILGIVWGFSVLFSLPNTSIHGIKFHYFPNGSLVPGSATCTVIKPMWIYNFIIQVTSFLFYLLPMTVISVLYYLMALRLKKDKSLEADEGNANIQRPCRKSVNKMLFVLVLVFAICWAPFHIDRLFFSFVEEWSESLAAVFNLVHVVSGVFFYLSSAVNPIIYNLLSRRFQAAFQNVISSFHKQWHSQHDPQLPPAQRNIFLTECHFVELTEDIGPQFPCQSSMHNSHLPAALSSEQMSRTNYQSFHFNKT

With `CCCC[C@H](NC(=O)[C@H](CC(C)C)N(C)C(=O)[C@H](Cc1ccccc1)NC(=O)[C@H](Cc1ccc(O)cc1)NC(=O)CN1CCN(CCNC(=O)CN(C)C(=O)CN(C)C(=O)CN(C)C(=O)CN(C)C(=O)CN(C)C(=O)CN(C)C(=O)CN(C)C(=O)CN(C)C(=O)CN(C)C(=O)CN(C)C(=O)CN(C)C(=O)CN(C)C(=O)CN(C)C(=O)CN(C)C(=O)CN(C)C(=O)CC[C@H](NC(=O)CC[C@H](NC(=O)CC[C@H](NC(=O)CCCCCCCCCCCCCCCCCCC(=O)O)C(=O)O)C(=O)O)C(=O)O)CC1)C(=O)N[C@@H](CCN)C(=O)N1CCC[C@H]1C(=O)N[C@@H](CCCNC(=N)N)C(=O)NCC(N)=O` [Compound 42, C20DA-gGlu3-Sar15-AEPipAc-Tyr-Phe-NMeLeu-Nle-Dbu-Pro-Arg-Gly-NH2] (HELM PEPTIDE1{[O=C(O)CCCCCCCCCCCCCCCCCCC(=O)[*:2]].[gGlu].[gGlu].[gGlu].[Sar].[Sar].[Sar].[Sar].[Sar].[Sar].[Sar].[Sar].[Sar].[Sar].[Sar].[Sar].[Sar].[Sar].[Sar].[O=C(CN1CCN(CCN[*:1])CC1)[*:2]].Y.F.[meL].[Nle].[Dab].P.R.G.[am]}$$$$V2.0), the EC50 on human NMUR1 receptor came out at 1500 nM; at human NMUR2 receptor [1] it was 3.2 nM; at human NMUR2 receptor [2] it was 5.8 nM. This compound yielded a solubility at 2 h in “physchem” (pH 6.9) of 5300 µg/mL (≈ 1810 µM).
As for `CCCC[C@H](NC(=O)[C@H](CC(C)C)N(C)C(=O)[C@H](Cc1ccccc1)NC(=O)[C@H](Cc1ccc(O)cc1)NC(=O)CN1CCN(CCNC(=O)CN(C)C(=O)CN(C)C(=O)CN(C)C(=O)CN(C)C(=O)CN(C)C(=O)CN(C)C(=O)CN(C)C(=O)CN(C)C(=O)CN(C)C(=O)CN(C)C(=O)CN(C)C(=O)CN(C)C(=O)CN(C)C(=O)CN(C)C(=O)CN(C)C(=O)CC[C@H](NC(=O)CC[C@H](NC(=O)CC[C@H](NC(=O)CCCCCCCCCCCCCCCCC(=O)O)C(=O)O)C(=O)O)C(=O)O)CC1)C(=O)N[C@@H](CCCN)C(=O)N(C)[C@@H](C)C(=O)N[C@@H](CCCNC(=N)N)C(=O)NCC(N)=O` [Compound 22, C18DA-gGlu3-Sar15-AEPipAc-Tyr-Phe-NMeLeu-Nle-Orn-NMeAla-Arg-Gly-NH2] (HELM PEPTIDE1{[O=C(O)CCCCCCCCCCCCCCCCC(=O)[*:2]].[gGlu].[gGlu].[gGlu].[Sar].[Sar].[Sar].[Sar].[Sar].[Sar].[Sar].[Sar].[Sar].[Sar].[Sar].[Sar].[Sar].[Sar].[Sar].[O=C(CN1CCN(CCN[*:1])CC1)[*:2]].Y.F.[meL].[Nle].[Orn].[meA].R.G.[am]}$$$$V2.0), the concentration for a half-maximal effect (EC50) at human NMUR1 receptor was greater than 1000 nM; on human NMUR2 receptor [1] it was 3.2 nM; on human NMUR2 receptor [2], 10.8 nM. This compound came in with a solubility at 2 h in “physchem” (pH 7.3) of 8600 µg/mL (≈ 2970 µM).
Consider `CCCC[C@H](NC(=O)[C@H](CC(C)C)N(C)C(=O)[C@H](Cc1ccccc1)NC(=O)[C@H](Cc1ccc(O)cc1)NC(=O)CN1CCN(CCNC(=O)CN(C)C(=O)CN(C)C(=O)CN(C)C(=O)CN(C)C(=O)CN(C)C(=O)CN(C)C(=O)CN(C)C(=O)CN(C)C(=O)CN(C)C(=O)CN(C)C(=O)CN(C)C(=O)CN(C)C(=O)CN(C)C(=O)CN(C)C(=O)CN(C)C(=O)CC[C@H](NC(=O)CC[C@H](NC(=O)CC[C@H](NC(=O)CCCCCCCCCCCCCCCCC(=O)O)C(=O)O)C(=O)O)C(=O)O)CC1)C(=O)N[C@@H](CCCNC(=N)N)C(=O)N1CCC[C@H]1C(=O)N[C@@H](CCCNC(=N)N)C(=O)NCC(N)=O` [Compound 7, C18DA-gGlu3-Sar15-AEPipAc-Tyr-Phe-NMeLeu-Nle-Arg-Pro-Arg-Gly-NH2] (HELM PEPTIDE1{[O=C(O)CCCCCCCCCCCCCCCCC(=O)[*:2]].[gGlu].[gGlu].[gGlu].[Sar].[Sar].[Sar].[Sar].[Sar].[Sar].[Sar].[Sar].[Sar].[Sar].[Sar].[Sar].[Sar].[Sar].[Sar].[O=C(CN1CCN(CCN[*:1])CC1)[*:2]].Y.F.[meL].[Nle].R.P.R.G.[am]}$$$$V2.0), for which the values for the EC50 on human NMUR1 receptor, at human NMUR2 receptor [1] and at human NMUR2 receptor [2] were 250 nM, 1.2 nM and 4.4 nM, respectively. In “physchem” (pH 7), this compound displayed a solubility at 2 h of 7000 µg/mL (≈ 2370 µM). For the same compound, the “EC50 (hNMUR1)/EC50 (hNMUR2)” value on human NMUR2 receptor [1] amounted to 208.
Regarding `CCCC[C@H](NC(=O)[C@H](CC(C)C)N(C)C(=O)[C@H](Cc1ccccc1)NC(=O)[C@H](Cc1ccc(O)cc1)NC(=O)CN1CCN(CCNC(=O)CN(C)C(=O)CN(C)C(=O)CN(C)C(=O)CN(C)C(=O)CN(C)C(=O)CN(C)C(=O)CN(C)C(=O)CN(C)C(=O)CN(C)C(=O)CN(C)C(=O)CN(C)C(=O)CN(C)C(=O)CN(C)C(=O)CN(C)C(=O)CN(C)C(=O)CC[C@H](NC(=O)CC[C@H](NC(=O)CC[C@H](NC(=O)CCCCCCCCCCCCCCCCC(=O)O)C(=O)O)C(=O)O)C(=O)O)CC1)C(=O)N[C@@H](CCN)C(=O)N1CCC[C@H]1C(=O)N[C@@H](CCCNC(=N)N)C(=O)NCC(N)=O` [Compound 26, C18DA-gGlu3-Sar15-AEPipAc-Tyr-Phe-NMeLeu-Nle-Dbu-Pro-Arg-Gly-NH2] (HELM PEPTIDE1{[O=C(O)CCCCCCCCCCCCCCCCC(=O)[*:2]].[gGlu].[gGlu].[gGlu].[Sar].[Sar].[Sar].[Sar].[Sar].[Sar].[Sar].[Sar].[Sar].[Sar].[Sar].[Sar].[Sar].[Sar].[Sar].[O=C(CN1CCN(CCN[*:1])CC1)[*:2]].Y.F.[meL].[Nle].[Dab].P.R.G.[am]}$$$$V2.0), the half-maximal effective concentration (EC50) was greater than 1000 nM on human NMUR1 receptor, 1.5 nM on human NMUR2 receptor [1] and 3.9 nM at human NMUR2 receptor [2]. This compound had a solubility at 2 h in the data set “physchem” (pH 7.3) of 7700 µg/mL (≈ 2660 µM).
Regarding `CCCC[C@H](NC(=O)[C@H](CC(C)C)N(C)C(=O)[C@H](Cc1ccccc1)NC(=O)[C@H](Cc1ccc(O)cc1)NC(=O)CN1CCN(CCNC(=O)CN(C)C(=O)CN(C)C(=O)CN(C)C(=O)CN(C)C(=O)CN(C)C(=O)CN(C)C(=O)CN(C)C(=O)CN(C)C(=O)CN(C)C(=O)CN(C)C(=O)CN(C)C(=O)CN(C)C(=O)CN(C)C(=O)CN(C)C(=O)CN(C)C(=O)CC[C@H](NC(=O)CC[C@H](NC(=O)CC[C@H](NC(=O)CCCCCCCCCCCCCCCCCCC(=O)O)C(=O)O)C(=O)O)C(=O)O)CC1)C(=O)N[C@@H](CCCN)C(=O)N1CCC[C@H]1C(=O)N[C@@H](CCCNC(=N)N)C(=O)NCC(N)=O` [Compound 1, C20DA-gGlu3-Sar15-AEPipAc-Tyr-Phe-NMeLeu-Nle-Orn-Pro-Arg-Gly-NH2] (HELM PEPTIDE1{[O=C(O)CCCCCCCCCCCCCCCCCCC(=O)[*:2]].[gGlu].[gGlu].[gGlu].[Sar].[Sar].[Sar].[Sar].[Sar].[Sar].[Sar].[Sar].[Sar].[Sar].[Sar].[Sar].[Sar].[Sar].[Sar].[O=C(CN1CCN(CCN[*:1])CC1)[*:2]].Y.F.[meL].[Nle].[Orn].P.R.G.[am]}$$$$V2.0), the EC50 is 890 nM at human NMUR1 receptor, 1.4 nM at human NMUR2 receptor [1] and 2.8 nM on human NMUR2 receptor [2]. The compound further came in with a solubility at 2 h in the data set “physchem” (pH 7.5) of 8200 µg/mL (≈ 2790 µM). The “EC50 (hNMUR1)/EC50 (hNMUR2)” value on human NMUR2 receptor [1] worked out at 635.
As to `CCCC[C@H](NC(=O)[C@H](CC(C)C)N(C)C(=O)[C@H](Cc1ccccc1)NC(=O)[C@H](Cc1ccc(O)cc1)NC(=O)CN1CCN(CCNC(=O)CN(C)C(=O)CN(C)C(=O)CN(C)C(=O)CN(C)C(=O)CN(C)C(=O)CN(C)C(=O)CN(C)C(=O)CN(C)C(=O)CN(C)C(=O)CN(C)C(=O)CN(C)C(=O)CN(C)C(=O)CN(C)C(=O)CN(C)C(=O)CN(C)C(=O)CC[C@H](NC(=O)CC[C@H](NC(=O)CC[C@H](NC(=O)CCCCCCCCCCCCCCCCC(=O)O)C(=O)O)C(=O)O)C(=O)O)CC1)C(=O)N[C@@H](CCCN)C(=O)N1CCC[C@H]1C(=O)N[C@@H](CCCNC(=N)N)C(=O)NCC(N)=O` [Compound 21, C18DA-gGlu3-Sar15-AEPipAc-Tyr-Phe-NMeLeu-Nle-Orn-Pro-Arg-Gly-NH2] (HELM PEPTIDE1{[O=C(O)CCCCCCCCCCCCCCCCC(=O)[*:2]].[gGlu].[gGlu].[gGlu].[Sar].[Sar].[Sar].[Sar].[Sar].[Sar].[Sar].[Sar].[Sar].[Sar].[Sar].[Sar].[Sar].[Sar].[Sar].[O=C(CN1CCN(CCN[*:1])CC1)[*:2]].Y.F.[meL].[Nle].[Orn].P.R.G.[am]}$$$$V2.0), the EC50 at human NMUR1 receptor is greater than 1000 nM; on human NMUR2 receptor [1], 2.6 nM; on human NMUR2 receptor [2] it was 8.7 nM. For the same compound, the solubility at 2 h in “physchem” (pH 7.3) came to 7500 µg/mL (≈ 2580 µM).
